Here are results for 11 compounds from PubChem BioAssay (NCI).

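Dose response: 5 concentrations. Exposure: 48 h. Format: 96-well plates. Endpoint: linear interpolation; highest concentration if not reached. GI50 = concentration required for 50% inhibition of growth. The concentration for full growth arrest is given as TGI.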

Common to all, as to assay: inhibition of tumour cell growth, NCI panel, 48 h
Assay [1] deals with BT-549 breast.
In assay [2] the test system is A549 NSCLC.
The test system of assay [3] is ACHN renal.
In assay [4] the test system is COLO 205 colon.
Assay [5] deals with UACC-62 melanoma.
The test system of assay [6] is SNB-19 CNS.
The subject of assay [7] is SK-MEL-5 melanoma.
Assay [8] concerns HOP-92 NSCLC.
The subject of assay [9] is HS 578T breast.
Assay [10] deals with OVCAR-5 ovarian.

In the case of `Nc1ncnc2c1c(-c1ccc(Oc3ccccc3)cc1)nn2C[C@@H]1SSC[C@H]1O`, the GI50 in assay [1] is 3.58 µM; in assay [2] it was 1.86 µM; in assay [3] it was 2.02 µM; in assay [4] it was 2.14 µM; in assay [5], 0.264 µM; in [6], 2.88 µM. The GI50 is 0.874 µM in assay [7], 1.75 µM in assay [8], 2.96 µM in [9] and 3.47 µM in [10]. Also, the TGI was determined as 11.6 µM in assay [1]; 4.69 µM in assay [2]; 10.5 µM in [3]; 7.48 µM in [4]; 0.882 µM in [5]; 13.3 µM in assay [6]. Further, the TGI in assay [7] turned out to be 2.3 µM; in assay [8], 5.87 µM; in assay [9], 11.2 µM; in assay [10] it was 26.6 µM.

Take `COc1ccc(C2=C(c3ccc(OC)c(OC)c3)C(=O)N3CCCC3C2)cc1` (configuration not stated): the GI50 in assay [1] is > 71.2 µM; in assay [2], 15.1 µM; in assay [3] it was 34 µM; in [4], 8.41 µM; in [5] it was 13.2 µM; in [6] it was 63.8 µM. The GI50 was 9.03 µM in assay [7], 41.3 µM in assay [8], 6.71 µM in assay [9] and > 100 µM in assay [10]. For the same compound, the TGI in [1], in assay [2], in assay [3], in [4], in [5] and in [6] was > 100 µM each time. The TGI in assay [7] is > 72.6 µM; in assay [8] it was > 100 µM; in assay [9], > 78 µM; in assay [10] it was > 100 µM.

Turning to `COc1ccc(CC(=O)c2ccc(O)cc2O)cc1`, the GI50 in assay [1] is 66.2 µM; in assay [2], > 100 µM; in assay [3] it was > 100 µM; in assay [4], > 100 µM; in [5], 93 µM; in assay [6], > 100 µM. Moreover, the GI50 in assay [7] is 48.3 µM; in assay [8], 12.3 µM; in [9] it was > 100 µM; in assay [10], > 100 µM. Also, the TGI in [1], in assay [2], in assay [3], in assay [4], in [5] and in [6] was > 100 µM throughout. Besides, the TGI in [7] is > 100 µM; in [8] it was 62.1 µM; in [9], > 100 µM; in assay [10], > 100 µM.

In the case of `Nc1c(C(=O)c2cccc(C#CCO)c2)cnn1-c1ccc(F)cc1`, the GI50 in assay [1], in [2], in [3], in assay [4], in assay [5] and in assay [6] was > 25 µM each time. In addition, the GI50 was > 25 µM in [7], > 13.2 µM in [8], 5.18 µM in assay [9] and > 25 µM in assay [10]. The TGI in [1], in assay [2], in assay [3], in assay [4], in assay [5] and in assay [6] was > 25 µM each time. In addition, the TGI in assay [7], in assay [8], in [9] and in [10] was > 25 µM each time.

As for `CC[C@H](CO)Nc1nc(NCc2ccccc2)c2ncn(C(C)C)c2n1`, the TGI in assay [1] is 45.3 µM; in assay [2], > 100 µM; in assay [3] it was > 85.9 µM; in assay [4], 36.6 µM; in assay [5] it was 34 µM; in assay [6], > 100 µM. In addition, the TGI was 35.5 µM in assay [7], > 90.7 µM in assay [8], 68.2 µM in assay [9] and > 96.4 µM in assay [10]. The GI50 in assay [2] was 20.1 µM; in [3], 16.4 µM; in [5], 10.5 µM; in assay [6], 26.4 µM; in assay [8], 28.1 µM; in assay [9], 20.8 µM. For the same compound, in [10], the GI50 was 28 µM.

Consider `COC(=N)c1c(N)[n+]([O-])c2ccc(F)cc2[n+]1[O-]`, for which the GI50 in [1] is > 100 µM; in [2], > 100 µM; in assay [3], > 100 µM; in assay [4], 61.7 µM; in assay [5] it was > 100 µM; in assay [6], > 100 µM. In addition, the GI50 in [7] is 52.6 µM; in [8] it was 78.8 µM; in [9], > 100 µM; in assay [10], > 100 µM. The TGI in assay [1], in assay [2], in assay [3], in [4], in assay [5] and in assay [6] was > 100 µM each time. For the same compound, the TGI in assay [7], in assay [8], in [9] and in [10] was > 100 µM in each case.

Turning to `O=[N+]([O-])c1ccc(N2CCC(CCCC3CCN(c4ccc([N+](=O)[O-])cc4[N+](=O)[O-])CC3)CC2)c([N+](=O)[O-])c1`, the TGI amounted to 71.8 µM in assay [1]; 31.8 µM in [2]; 35.4 µM in assay [3]; 31.8 µM in assay [4]; 24.4 µM in assay [5]; 34.8 µM in assay [6]. In addition, the TGI in [7] is 30.7 µM; in [8] it was 26.4 µM; in assay [9] it was > 100 µM; in assay [10] it was 45.7 µM.

In the case of `Cn1cc(-c2csc(-c3cn(CCCN4CCCCC4)c4ccccc34)n2)c2cccnc21`, the GI50 is 1.56 µM in [1]; 1.97 µM in assay [2]; 1.63 µM in assay [3]; 1.82 µM in [4]; 1.87 µM in assay [5]; 1.83 µM in [6]. Besides, the GI50 was 1.82 µM in assay [7], 13.3 µM in assay [8], 2.55 µM in [9] and 1.63 µM in assay [10]. Besides, the TGI in [1] was 2.94 µM; in assay [2], 3.6 µM; in assay [3], 3.01 µM; in assay [4], 3.61 µM; in assay [5], 3.46 µM; in [6], 3.34 µM. Also, the TGI in assay [7] worked out at 3.26 µM; in assay [8] it was 35.2 µM; in [9] it was 6.26 µM; in assay [10] it was 3.13 µM.

With `COC(=O)Nc1nc2ccc(Oc3cccc(NC(=O)Nc4cc(C(F)(F)F)ccc4F)c3)cc2[nH]1`, the GI50 in assay [1] was 23 µM; in assay [2], 16 µM; in assay [3], 24.4 µM; in [4], 8.82 µM; in assay [5] it was 8.11 µM; in assay [6], > 25 µM. Moreover, the GI50 in assay [7] is 5.97 µM; in [8], 2.94 µM; in assay [9], 7.47 µM; in assay [10] it was > 22.5 µM. Also, the TGI in [1], in assay [2], in assay [3], in assay [4], in assay [5] and in assay [6] was > 25 µM in each case. For the same compound, the TGI is > 17.4 µM in [7], > 22.2 µM in assay [8], > 25 µM in assay [9] and > 25 µM in assay [10].

Regarding `CCc1ccc2c(c1)C(=O)c1c-2n(CCCN=[N+]=[N-])c(=O)c2cc(OC)c(OC)cc12`, the GI50 was 76.5 µM in [1]; > 100 µM in assay [2]; 42.2 µM in assay [3]; > 100 µM in [4]; 91.9 µM in [5]; > 100 µM in assay [6]. The GI50 in assay [7] is > 100 µM; in assay [8], 23.8 µM; in assay [9], 89.1 µM; in assay [10], > 100 µM. Besides, the TGI in assay [1], in [2], in assay [3], in assay [4], in assay [5] and in [6] was > 100 µM each time. In addition, the TGI is > 100 µM in assay [7], 94.8 µM in assay [8], > 100 µM in assay [9] and > 100 µM in assay [10].

As to `O=C1C(SCCO)=C(SCCO)C(=O)N1c1ccc(-c2ccccc2)cc1`, the GI50 in assay [1] was 4.01 µM; in [2], 10.2 µM; in [3], 1.68 µM; in [4], 1.45 µM; in assay [5], 6.34 µM; in assay [6] it was 19.8 µM. Moreover, the GI50 in assay [7] was 9.46 µM; in assay [8] it was 1.87 µM; in assay [9], 17.2 µM; in assay [10], 3.61 µM. Besides, the TGI in assay [1] amounted to 8.38 µM; in assay [2] it was 27 µM; in [3] it was 3.11 µM; in assay [4], 3.09 µM; in assay [5] it was 19 µM; in [6] it was 43.1 µM. The TGI was 24.6 µM in assay [7], 7.24 µM in assay [8], > 77.9 µM in assay [9] and 11 µM in assay [10].
